{"source": "patent US20240051975A1", "about": "(TSINGHUA UNIVERSITY, priority 2020, published 2024)", "data": [{"test_system": "cell death induced by the NAMPT inhibitor FK866", "experiment": "Protection against cell death induced by the NAMPT inhibitor FK866 (Celltiter-Glo, cellular ATP)", "type": "cell-based", "settings": "AUC of dose-response curve (0.1-10 μM) relative to AUC of NAT; 10 nM FK866, 72 hours, cell viability by ATP", "description": "(§1) In the latter cell-based assay, we determined the degree of protection of NAT and derivatives thereof against the NAMPT inhibitor FK866. […] After 72 hours, Celltiter-Glo (Promega) was used to detect cellular ATP levels to reflect cell viability and normalized to the DMSO group. A dose-response curve was drawn to evaluate the cytoprotective activity of individual compounds against FK866. Then the area under the dose-response curve (AUC, area under curve) of each compound was calculated and compared with the AUC of NAT, so that the obtained relative value quantitatively expressed the cytoprotective activity of each compound.", "values": [{"compound": "CC(C)(C)c1ccccc1OCC(=O)Nc1ccc(O)cc1F", "note": "[Compound 40, 2-(2-(tert-butyl)phenoxy)-N-(2-fluoro-4-hydroxyphenyl)acetamide]", "Relative cytoprotective activity": 0.1859}, {"compound": "CC(C)(C)c1cc(C#N)ccc1OCC(=O)Nc1ccc(O)cc1", "note": "[Compound 66, 2-(2-(tert-butyl)-4-cyanophenoxy)-N-(4-hydroxyphenyl)acetamide]", "Relative cytoprotective activity": 1.569}, {"compound": "O=C(COc1ccccc1-c1ccccc1)Nc1ccc(O)cc1", "note": "[Compound 17, 2-([1,1′-biphenyl]-2-yloxy)-N-(4-hydroxyphenyl)acetamide]", "Relative cytoprotective activity": 0.4572}, {"compound": "CC(C)(C)c1cccc(C(C)(C)C)c1OCC(=O)Nc1ccc(O)cc1", "note": "[Compound 18, 2-(2,6-di-tert-butylphenoxy)-N-(4-hydroxyphenyl)acetamide]", "Relative cytoprotective activity": 0.04793}, {"compound": "Cc1ccccc1OCC(=O)Nc1ccc(O)cc1", "note": "[Compound 15, N-(4-hydroxyphenyl)-2-(o-tolyloxy)acetamide]", "Relative cytoprotective activity": 0.4402}, {"compound": "COC(=O)c1ccc(C(C)(C)C)c(OCC(=O)Nc2ccc(O)cc2)c1", "note": "[Compound 62, 4-(tert-butyl)-3-(24(4-hydroxyphenyl)amino)-2-oxoethoxy)methyl benzoate]", "Relative cytoprotective activity": 0.7359}, {"compound": "CC(C)(C)c1cc(Br)ccc1OCC(=O)Nc1ccc(O)cc1", "note": "[Compound 61, 2-(4-bromo-2-(tert-butyl)phenoxy)-N-(4-hydroxyphenyl)acetamide]", "Relative cytoprotective activity": 1.285}, {"compound": "CC(C)(C)c1cc(F)ccc1OCC(=O)Nc1ccc(O)cc1", "note": "[Compound 56, 2-(2-(tert-butyl)-4-fluorophenoxy)-N-(4-hydroxyphenyl)acetamide]", "Relative cytoprotective activity": 0.9846}, {"compound": "CCc1ccc(OCC(=O)Nc2ccc(O)cc2)c(C(C)(C)C)c1", "note": "[Compound 54, 2-(2-(tert-butyl)-4-ethylphenoxy)-N-(4-hydroxyphenyl)acetamide]", "Relative cytoprotective activity": 0.8554}, {"compound": "CC(C)(C)c1cccc(C#N)c1OCC(=O)Nc1ccc(O)cc1", "note": "[Compound 21, 2-(2-(tert-butyl)-6-cyanophenoxy)-N-(4-hydroxyphenyl)acetamide]", "Relative cytoprotective activity": 2.198}, {"compound": "CC(C)(C)c1cccc(Br)c1OCC(=O)Nc1ccc(O)cc1", "note": "[Compound 59, 2-(2-bromo-6-(tert-butyl)phenoxy)-N-(4-hydroxyphenyl)acetamide]", "Relative cytoprotective activity": 0.5085}]}, {"test_system": "cell death induced by the NAMPT inhibitor FK866", "experiment": "Protection against cell death induced by the NAMPT inhibitor FK866 (Celltiter-Glo, cellular ATP)", "type": "cell-based", "settings": "against FK866", "description": "as §1", "values": [{"compound": "CC(C)(C)c1cccc(C#N)c1OCC(=O)Nc1ccc(O)cc1", "note": "[Compound 21, 2-(2-(tert-butyl)-6-cyanophenoxy)-N-(4-hydroxyphenyl)acetamide]", "cytoprotective activity (in words)": "significantly improved compared with NAT"}]}, {"biological_target": "NAMPT (Homo sapiens, UniProt P43490)", "sequence (P43490 whole entry, species assumed)": "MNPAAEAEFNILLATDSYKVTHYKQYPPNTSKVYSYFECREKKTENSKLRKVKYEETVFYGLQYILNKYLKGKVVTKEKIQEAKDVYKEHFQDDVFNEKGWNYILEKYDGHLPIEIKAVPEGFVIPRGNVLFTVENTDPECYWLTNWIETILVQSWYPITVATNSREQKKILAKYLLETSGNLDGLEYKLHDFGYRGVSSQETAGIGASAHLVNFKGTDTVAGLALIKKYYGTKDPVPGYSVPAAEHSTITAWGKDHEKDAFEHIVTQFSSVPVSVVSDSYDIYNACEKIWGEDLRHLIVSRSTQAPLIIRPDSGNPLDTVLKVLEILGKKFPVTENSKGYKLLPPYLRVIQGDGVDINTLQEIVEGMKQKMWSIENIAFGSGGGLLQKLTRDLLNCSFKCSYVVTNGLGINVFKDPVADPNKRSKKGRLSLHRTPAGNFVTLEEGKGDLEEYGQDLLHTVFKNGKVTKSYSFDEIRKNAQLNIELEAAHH", "experiment": "NAMPT enzyme activity assay coupled with NMNAT1 and ADH (NADH fluorescence)", "settings": "AUC of dose-response curve (0.1, 0.3, 1, 3, 10 μM) relative to AUC of NAT (NAT = 1); 1 μM NAMPT, 200 μM NAM", "protocol": "The NAMPT enzyme activity was assayed by a method coupled with the three enzymes: NAMPT, NMNAT1 and alcohol dehydrogenase (ADH). NAMPT synthesizes NMN from NAM and PRPP, NMNAT1 synthesizes NAD from NMN produced in the first step, and ADH converts NAD into detectable fluorescent NADH. […] The reaction was initiated by adding 200 μM nicotinamide (NAM) and mixing gently. The enzyme activity of NAMPT was expressed as the concentration of NADH generated per minute (the molar value was equal to NAD). The relative enzyme activity of NAMPT in each compound-treated group was normalized by the value of the DMSO-treated group, and a dose-response curve was drawn to evaluate the effect of individual compounds on NAMPT enzyme activity. The area under the dose-response curve (AUC, area under curve) was then calculated for individual compound and compared to the AUC of NAT, so that the obtained relative value quantitative Eauc represented the enzyme activation activity of each compound, and the specific calculation formula was shown in FIG. 3.", "values": [{"compound": "CC(C)(C)c1ccccc1OCC(=O)Nc1ccc(O)cc1F", "note": "[Compound 40, 2-(2-(tert-butyl)phenoxy)-N-(2-fluoro-4-hydroxyphenyl)acetamide]", "Relative activation of NAMPT activity": 0.03898}, {"compound": "CC(C)(C)c1ccccc1OCC(=O)Nc1ccc(S)cc1", "note": "[Compound 34, 2-(2-(tert-butyl)phenoxy)-N-(4-mercaptophenyl)acetamide]", "Relative activation of NAMPT activity": "−0.096"}, {"compound": "CC(C)(C)c1cc(C#N)ccc1OCC(=O)Nc1ccc(O)cc1", "note": "[Compound 66, 2-(2-(tert-butyl)-4-cyanophenoxy)-N-(4-hydroxyphenyl)acetamide]", "Relative activation of NAMPT activity": 1.2627}, {"compound": "O=C(COc1ccccc1-c1ccccc1)Nc1ccc(O)cc1", "note": "[Compound 17, 2-([1,1′-biphenyl]-2-yloxy)-N-(4-hydroxyphenyl)acetamide]", "Relative activation of NAMPT activity": 0.3353}, {"compound": "CC(C)(C)c1cccc(C(C)(C)C)c1OCC(=O)Nc1ccc(O)cc1", "note": "[Compound 18, 2-(2,6-di-tert-butylphenoxy)-N-(4-hydroxyphenyl)acetamide]", "Relative activation of NAMPT activity": "−0.142"}, {"compound": "CC(C)(C)c1ccccc1OCC(=O)Nc1ccc(S(N)(=O)=O)cc1", "note": "[Compound 26, 2-(2-(tert-butyl)phenoxy)-N-(4-sulfamoylphenyl)acetamide]", "Relative activation of NAMPT activity": "−0.2346"}, {"compound": "CC(C)(C)c1ccccc1OCC(=O)Nc1ccc(N)cc1", "note": "[Compound 30, N-(4-aminophenyl)-2-(2-(tert-butyl)phenoxy)acetamide]", "Relative activation of NAMPT activity": 0.8075}, {"compound": "CC(C)(C)c1ccccc1OCC(=O)Nc1ccccc1O", "note": "[Compound 4, 2-(2-(tert-butyl)phenoxy)-N-(2-hydroxyphenyl)acetamide]", "Relative activation of NAMPT activity": "−0.1833"}, {"compound": "COC(=O)c1ccc(C(C)(C)C)c(OCC(=O)Nc2ccc(O)cc2)c1", "note": "[Compound 62, 4-(tert-butyl)-3-(24(4-hydroxyphenyl)amino)-2-oxoethoxy)methyl benzoate]", "Relative activation of NAMPT activity": 0.5464}, {"compound": "CC(C)(C)c1cc(Br)ccc1OCC(=O)Nc1ccc(O)cc1", "note": "[Compound 61, 2-(4-bromo-2-(tert-butyl)phenoxy)-N-(4-hydroxyphenyl)acetamide]", "Relative activation of NAMPT activity": 0.4032}, {"compound": "CC(C)(C)c1ccccc1OCC(=O)Nc1ccc(O)cc1O", "note": "[Compound 48, 2-(2-(tert-butyl)phenoxy)-N-(2,4-dihydroxyphenyl)acetamide]", "Relative activation of NAMPT activity": "−0.1608"}, {"compound": "COc1ccc(NC(=O)COc2ccccc2C(C)(C)C)cc1", "note": "[Compound 5, 2-(2-(tert-butyl)phenoxy)-N-(4-methoxyphenyl)acetamide]", "Relative activation of NAMPT activity": "−0.168"}, {"compound": "Cc1cc(O)ccc1NC(=O)COc1ccccc1C(C)(C)C", "note": "[Compound 43]", "Relative activation of NAMPT activity": "−0.168"}, {"compound": "CC(=O)c1cc(NC(=O)COc2ccccc2C(C)(C)C)ccc1O", "note": "[Compound 46, N-(3-acetyl-4-hydroxyphenyl)-2-(2-(tert-butyl)phenoxy)acetamide]", "Relative activation of NAMPT activity": "−0.1777"}, {"compound": "CC(C)(C)c1ccccc1OCC(=O)Nc1ccc(F)cc1", "note": "[Compound 9, 2-(2-(tert-butyl)phenoxy)-N-(4-fluorophenyl)acetamide]", "Relative activation of NAMPT activity": "−0.2123"}, {"compound": "CC(C)(C)c1ccccc1OCC(=O)Nc1ccc(O)cn1", "note": "[Compound 49, 2-(2-(tert-butyl)phenoxy)-N-(5-hydroxypyridin-2-yl)acetamide]", "Relative activation of NAMPT activity": "−0.0947"}, {"compound": "CC(C)(C)c1ccccc1OCC(=O)Nc1ccc(C#N)cc1", "note": "[Compound 32, 2-(2-(tert-butyl)phenoxy)-N-(4-cyanophenyl)acetamide]", "Relative activation of NAMPT activity": "−0.2396"}, {"compound": "CC(C)(C)c1ccccc1OCC(=O)Nc1ccc(O)c(CO)c1", "note": "[Compound 47, 2-(2-(tert-butyl)phenoxy)-N-(4-hydroxyl-3-(hydroxymethyl)phenyl)acetamide]", "Relative activation of NAMPT activity": "−0.1983"}, {"compound": "CC(C)(C)c1ccccc1OCC(=O)Nc1ccc(O)cc1CO", "note": "[Compound 50, 2-(2-(tert-butyl)phenoxy)-N-(4-hydroxyl-2-(hydroxymethyl)phenyl)acetamide]", "Relative activation of NAMPT activity": "−0.1356"}, {"compound": "COc1cc(NC(=O)COc2ccccc2C(C)(C)C)ccc1O", "note": "[Compound 44, 2-(2-(tert-butyl)phenoxy)-N-(4-hydroxyl-3-methoxyphenyl)acetamide]", "Relative activation of NAMPT activity": "−0.1512"}, {"compound": "CC(C)(C)c1ccccc1OCC(=O)Nc1ccc(B(O)O)cc1", "note": "[Compound 27]", "Relative activation of NAMPT activity": 0.1217}, {"compound": "CC(C)(C)c1ccccc1OCC(=O)Nc1ccc(-c2ccccc2)cc1", "note": "[Compound 12]", "Relative activation of NAMPT activity": "−0.0947"}, {"compound": "Cc1ccc(NC(=O)COc2ccccc2C(C)(C)C)cc1", "note": "[Compound 10, 2-(2-(tert-butyl)phenoxy)-N-(p-tolyl)acetamide]", "Relative activation of NAMPT activity": "−0.1608"}, {"compound": "COC(=O)c1cc(NC(=O)COc2ccccc2C(C)(C)C)ccc1O", "note": "[Compound 45, 5-(2-(2-(tert-butyl)phenoxy)acetamido)-2-hydroxybenzoic acid methyl ester]", "Relative activation of NAMPT activity": "−0.3625"}, {"compound": "CCOC(=O)c1ccc(NC(=O)COc2ccccc2C(C)(C)C)cc1", "note": "[Compound 6, ethyl 4-(2-(2-(tert-butyl)phenoxy)acetamido) benzoate]", "Relative activation of NAMPT activity": "−0.1512"}, {"compound": "CC(C)(C)c1ccccc1OCC(=O)Nc1ccc(O)c(O)c1", "note": "[Compound 37, 2-(2-(tert-butyl)phenoxy)-N-(3,4-dihydroxyphenyl)acetamide]", "Relative activation of NAMPT activity": "−0.1366"}, {"compound": "CC(C)(C)c1ccccc1OCC(=O)Nc1cccc(O)c1", "note": "[Compound 3, 2-(2-(tert-butyl)phenoxy)-N-(3-hydroxyphenyl)acetamide]", "Relative activation of NAMPT activity": "−0.1895"}, {"compound": "CC(C)(C)c1ccccc1OCC(=O)Nc1ccc(Oc2ccccc2)cc1", "note": "[Compound 11, 2-(2-(tert-butyl)phenoxy)-N-(4-phenoxyphenyl)acetamide]", "Relative activation of NAMPT activity": "−0.1409"}, {"compound": "CC(C)(C)c1ccccc1OCC(=O)Nc1ccc(O)cc1C(F)(F)F", "note": "[Compound 38, 2-(2-(tert-butyl)phenoxy)-N-(4-hydroxy-2-(trifluoromethyl)phenyl)acetamide]", "Relative activation of NAMPT activity": "−0.12"}, {"compound": "CC(C)(C)c1ccccc1OCC(=O)Nc1ccc(O)c(Cl)c1", "note": "[Compound 42, 2-(2-(tert-butyl)phenoxy)-N-(3-chloro-4-hydroxyphenyl)acetamide]", "Relative activation of NAMPT activity": "−0.1833"}, {"compound": "CC(C)(C)c1cc(Br)cc(Br)c1OCC(=O)Nc1ccc(O)cc1", "note": "[Compound 60, 2-(2,4-dibromo-6-(tert-butyl)phenoxy)-N-(4-hydroxyphenyl)acetamide]", "Relative activation of NAMPT activity": 0.02456}, {"compound": "CC(C)(C)c1ccccc1OCC(=O)Nc1ccc(CO)cc1", "note": "[Compound 28, 2-(2-(tert-butyl)phenoxy)-N-(4-(hydroxymethyl)phenyl)acetamide]", "Relative activation of NAMPT activity": "−0.2198"}, {"compound": "CC(C)(C)c1ccccc1OCC(=O)Nc1ccc(O)c(C(F)(F)F)c1", "note": "[Compound 39, 2-(2-(tert-butyl)phenoxy)-N-(4-hydroxyl-3-(trifluoromethyl)phenyl)acetamide]", "Relative activation of NAMPT activity": "−0.1435"}, {"compound": "CC(C)(C)OC(=O)Nc1ccc(NC(=O)COc2ccccc2C(C)(C)C)cc1", "note": "[Compound 29, tert-butyl (4-(2-(2-(tert-butyl)phenoxy)acetamido)phenyl)carbamate]", "Relative activation of NAMPT activity": "−0.1978"}, {"compound": "CC(C)(C)c1ccccc1OCC(=O)Nc1ccc(O)cc1C(=O)O", "note": "[Compound 35, 2-(2-(2-(tert-butyl)phenoxy)acetamido)-5-hydroxybenzoic acid]", "Relative activation of NAMPT activity": "−0.0889"}, {"compound": "CC(C)(C)c1ccccc1CNC(=O)Nc1ccc(O)cc1", "note": "[Compound 25, 1-(2-tert-butyl)benzyl-3-(4-hydroxyl)phenylurea]", "Relative activation of NAMPT activity": "−0.2226"}, {"compound": "CC(C)(C)c1ccccc1OCC(=O)Nc1ccc(Cl)cc1", "note": "[Compound 8, 2-(2-(tert-butyl)phenoxy)-N-(4-chlorophenyl)acetamide]", "Relative activation of NAMPT activity": "−0.1983"}, {"compound": "CN(C)c1ccc(NC(=O)COc2ccccc2C(C)(C)C)cc1", "note": "[Compound 7, 2-(2-(tert-butyl)phenoxy)-N-(4-(dimethylamino)phenyl)acetamide]", "Relative activation of NAMPT activity": "−0.1777"}, {"compound": "CC(C)(C)c1ccccc1OCC(=O)Nc1ccc(C(=O)O)cc1", "note": "[Compound 33, 4-(2-(2-(tert-butyl)phenoxy)acetamido)benzoic acid]", "Relative activation of NAMPT activity": "−0.1619"}]}]}
